Measured values reported in ChEMBL document CHEMBL1201862, “PubChem BioAssay data set” (2004).
The source made the active and inactive calls.

Columns and labels:
[1] = target: T1, Oxysterols receptor LXR-beta (Homo sapiens, UniProt P55055); assay type: functional, cell-based
T1 sequence (P55055 whole entry): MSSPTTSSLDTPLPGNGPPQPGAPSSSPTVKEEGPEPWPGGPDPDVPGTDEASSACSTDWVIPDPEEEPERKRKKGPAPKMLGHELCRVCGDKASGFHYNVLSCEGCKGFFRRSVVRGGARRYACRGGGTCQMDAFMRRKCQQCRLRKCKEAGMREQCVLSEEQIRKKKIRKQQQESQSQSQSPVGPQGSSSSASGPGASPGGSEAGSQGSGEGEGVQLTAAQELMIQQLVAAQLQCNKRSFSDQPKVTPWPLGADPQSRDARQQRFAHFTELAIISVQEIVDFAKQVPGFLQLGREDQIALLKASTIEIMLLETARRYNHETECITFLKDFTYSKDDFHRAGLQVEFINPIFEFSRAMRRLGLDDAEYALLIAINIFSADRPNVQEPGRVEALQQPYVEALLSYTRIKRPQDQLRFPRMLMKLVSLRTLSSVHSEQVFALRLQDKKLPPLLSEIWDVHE

[2] = target: T1, Oxysterols receptor LXR-beta; assay type: functional, cell-based; remark: listed apart in the source
[3] = cells
[4] = target: T2, Rac GTPase-activating protein 1 (Homo sapiens, UniProt Q9H0H5); test: MgcRacGAP GTPase-activating activity inhibitors, confirmation, biochemical, ADP Hunter fluorescence, primary and confirmatory (AID 624330); assay type: functional
T2 sequence (Q9H0H5 whole entry): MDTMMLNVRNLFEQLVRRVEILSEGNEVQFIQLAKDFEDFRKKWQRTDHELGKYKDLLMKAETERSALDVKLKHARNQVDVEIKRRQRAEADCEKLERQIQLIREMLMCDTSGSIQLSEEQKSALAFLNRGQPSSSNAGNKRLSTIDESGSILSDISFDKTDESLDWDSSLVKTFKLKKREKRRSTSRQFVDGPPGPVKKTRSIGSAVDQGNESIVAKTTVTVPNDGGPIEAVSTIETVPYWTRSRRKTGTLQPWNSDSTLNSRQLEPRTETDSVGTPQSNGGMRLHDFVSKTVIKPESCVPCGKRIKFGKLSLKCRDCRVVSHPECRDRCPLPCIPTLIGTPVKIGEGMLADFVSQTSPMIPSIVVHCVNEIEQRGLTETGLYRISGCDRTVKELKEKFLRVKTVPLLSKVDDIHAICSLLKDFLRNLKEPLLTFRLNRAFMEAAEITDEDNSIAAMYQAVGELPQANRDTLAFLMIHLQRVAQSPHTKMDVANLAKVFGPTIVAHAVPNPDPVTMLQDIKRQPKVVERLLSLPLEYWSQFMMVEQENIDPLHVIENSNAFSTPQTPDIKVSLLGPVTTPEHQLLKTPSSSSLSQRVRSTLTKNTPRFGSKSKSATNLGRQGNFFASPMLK

[5] = human group III sPLA2 inhibitors, dose response, biochemical, QFRET, IC50 (AID 743457);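 also: green fluorescence rise as the enzyme cleaves BODIPY PC-A2 in liposomes; potency for inhibition of the enzyme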
[6] = target: T3, Mannose-6-phosphate isomerase (Homo sapiens, UniProt P34949); test: human PMI inhibitors, high substrate, primary screen, biochemical, fluorescence intensity, high mannose 6-phosphate (AID 1220)
T3 sequence (P34949 whole entry): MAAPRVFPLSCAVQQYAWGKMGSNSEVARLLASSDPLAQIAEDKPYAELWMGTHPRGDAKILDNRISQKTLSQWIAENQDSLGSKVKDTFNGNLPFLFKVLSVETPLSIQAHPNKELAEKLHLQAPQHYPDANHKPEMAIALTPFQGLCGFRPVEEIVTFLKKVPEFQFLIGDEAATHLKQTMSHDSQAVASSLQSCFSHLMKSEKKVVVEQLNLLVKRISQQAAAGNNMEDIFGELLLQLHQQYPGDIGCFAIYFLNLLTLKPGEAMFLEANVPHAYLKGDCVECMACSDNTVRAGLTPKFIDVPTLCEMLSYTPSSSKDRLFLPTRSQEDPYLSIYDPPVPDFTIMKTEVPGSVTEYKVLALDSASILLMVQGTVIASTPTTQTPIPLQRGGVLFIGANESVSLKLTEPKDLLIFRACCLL

[7] = target: T3, Mannose-6-phosphate isomerase; test: inhibitors of human PMI, primary screen, biochemical, fluorescence intensity, coupled assay (AID 1209)
[8] = target: T4, Histone-lysine N-methyltransferase NSD2 (Homo sapiens, UniProt O96028); assay type: biochemical
T4 sequence (O96028 whole entry): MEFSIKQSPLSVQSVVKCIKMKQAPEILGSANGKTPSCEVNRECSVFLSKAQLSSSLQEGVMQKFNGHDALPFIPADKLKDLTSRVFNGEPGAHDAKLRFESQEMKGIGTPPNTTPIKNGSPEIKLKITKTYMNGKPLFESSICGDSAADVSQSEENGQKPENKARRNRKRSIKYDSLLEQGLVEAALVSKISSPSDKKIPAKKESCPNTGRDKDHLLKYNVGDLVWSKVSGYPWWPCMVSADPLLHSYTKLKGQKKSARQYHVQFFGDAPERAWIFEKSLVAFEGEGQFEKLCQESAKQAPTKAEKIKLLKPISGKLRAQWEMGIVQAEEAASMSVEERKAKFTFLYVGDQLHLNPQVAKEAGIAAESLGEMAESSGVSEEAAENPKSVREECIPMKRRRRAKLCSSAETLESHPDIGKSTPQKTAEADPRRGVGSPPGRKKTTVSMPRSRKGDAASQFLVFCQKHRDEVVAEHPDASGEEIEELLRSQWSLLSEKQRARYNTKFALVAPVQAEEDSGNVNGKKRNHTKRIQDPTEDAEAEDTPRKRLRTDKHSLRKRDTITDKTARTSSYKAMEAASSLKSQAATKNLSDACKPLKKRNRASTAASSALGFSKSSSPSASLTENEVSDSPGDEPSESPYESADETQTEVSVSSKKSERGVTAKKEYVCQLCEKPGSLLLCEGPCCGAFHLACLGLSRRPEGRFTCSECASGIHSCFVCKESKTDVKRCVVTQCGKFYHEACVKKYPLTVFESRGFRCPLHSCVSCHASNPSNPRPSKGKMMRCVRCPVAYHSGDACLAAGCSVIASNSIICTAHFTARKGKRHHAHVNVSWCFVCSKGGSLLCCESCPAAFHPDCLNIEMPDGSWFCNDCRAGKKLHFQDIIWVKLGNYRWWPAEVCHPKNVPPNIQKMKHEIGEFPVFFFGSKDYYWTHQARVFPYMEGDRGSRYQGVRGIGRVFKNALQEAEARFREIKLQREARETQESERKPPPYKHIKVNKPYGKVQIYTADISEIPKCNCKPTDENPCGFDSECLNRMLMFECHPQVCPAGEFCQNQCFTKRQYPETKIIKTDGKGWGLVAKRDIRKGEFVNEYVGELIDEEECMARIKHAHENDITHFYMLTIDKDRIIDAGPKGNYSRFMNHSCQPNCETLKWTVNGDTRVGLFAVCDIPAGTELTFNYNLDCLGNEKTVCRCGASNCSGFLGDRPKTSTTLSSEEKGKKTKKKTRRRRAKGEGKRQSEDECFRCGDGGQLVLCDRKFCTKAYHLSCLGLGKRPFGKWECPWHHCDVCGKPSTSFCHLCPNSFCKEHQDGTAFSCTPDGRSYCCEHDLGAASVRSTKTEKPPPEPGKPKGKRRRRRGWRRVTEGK

[9] = target: T5, RNA-editing ligase 1, mitochondrial (Trypanosoma brucei brucei, UniProt P86926); test: TbREL1 ligase inhibitors, dose response, biochemical, fluorescence, Trypanosoma brucei (AID 1117295); assay type: functional
T5 sequence (P86926 whole entry): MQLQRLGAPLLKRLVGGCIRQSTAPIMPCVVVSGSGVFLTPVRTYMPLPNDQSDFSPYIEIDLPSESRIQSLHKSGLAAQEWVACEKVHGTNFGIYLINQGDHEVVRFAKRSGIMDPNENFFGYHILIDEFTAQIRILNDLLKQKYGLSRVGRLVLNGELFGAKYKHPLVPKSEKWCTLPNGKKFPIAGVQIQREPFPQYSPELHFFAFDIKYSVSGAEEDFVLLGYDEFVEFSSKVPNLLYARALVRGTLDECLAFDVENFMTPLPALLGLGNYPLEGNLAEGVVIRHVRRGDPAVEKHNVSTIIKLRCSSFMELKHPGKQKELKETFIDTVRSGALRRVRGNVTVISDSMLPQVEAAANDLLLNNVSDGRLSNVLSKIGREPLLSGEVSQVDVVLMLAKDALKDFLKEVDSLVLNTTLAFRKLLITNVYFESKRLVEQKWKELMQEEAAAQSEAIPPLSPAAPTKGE

[10] = HEK293T cytotoxicity, dose response, cytotoxicity control for miR-122 modulator project, cell-based, activator set, cherry-pick (AID 720690); assay type: functional;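 also: HEK293T human cells scored for general mammalian cytotoxicity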
[11] = HepG2 cell cytotoxicity, dose response, cytotoxicity control, ATP luminescence, cherry-pick, activator set 2 (AID 1053143); assay type: functional, cell-based
[12] = target: T6, Protein skinhead-1 (Caenorhabditis elegans, UniProt P34707); assay type: functional
T6 sequence (P34707 whole entry): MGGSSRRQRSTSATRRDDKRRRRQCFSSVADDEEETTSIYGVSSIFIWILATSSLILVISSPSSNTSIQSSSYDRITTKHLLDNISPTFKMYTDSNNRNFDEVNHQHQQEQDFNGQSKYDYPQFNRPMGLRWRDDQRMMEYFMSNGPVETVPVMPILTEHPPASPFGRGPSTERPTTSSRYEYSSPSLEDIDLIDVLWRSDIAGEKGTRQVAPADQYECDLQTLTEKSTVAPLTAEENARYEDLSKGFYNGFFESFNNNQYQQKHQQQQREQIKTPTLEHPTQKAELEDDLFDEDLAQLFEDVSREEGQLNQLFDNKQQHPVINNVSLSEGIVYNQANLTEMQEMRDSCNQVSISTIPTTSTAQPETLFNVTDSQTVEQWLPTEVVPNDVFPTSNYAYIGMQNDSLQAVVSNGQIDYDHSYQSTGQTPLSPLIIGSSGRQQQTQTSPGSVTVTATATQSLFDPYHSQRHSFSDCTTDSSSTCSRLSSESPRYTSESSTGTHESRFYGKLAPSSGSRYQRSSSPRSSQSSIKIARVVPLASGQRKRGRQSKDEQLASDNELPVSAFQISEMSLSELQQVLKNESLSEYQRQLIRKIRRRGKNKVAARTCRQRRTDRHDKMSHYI

[13] = HEK293T cytotoxicity, dose response, cytotoxicity control for miR-122 modulator project, cell-based, inhibitor set, cherry-pick, set 2 (AID 720697); assay type: functional
[14] = inhibitors of HIV Env-driven cell fusion, dose response, cherry-pick (AID 652057); assay type: functional, cell-based
[15] = A549 cell cytotoxicity, dose response, cytotoxicity control, plate reader, cherry-pick, antagonist series (AID 743412); assay type: functional, cell-based
[16] = LGR2 antagonists, dose response, cell-based, HEK293, CRE-luciferase reporter, cherry pick, set 2 (AID 743343); assay type: functional;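 also: transfected cells were stimulated with diluted bursicon conditioned medium after compound addition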
[17] = inhibitors of clade B AD8 Env fusion, dose response, cell-based, cherry-pick (AID 652062); assay type: functional;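 also: luciferase signal from cell-cell fusion driven by HIV-1 clade B AD8 Env; potency is for inhibitors of fusion seen as a drop in luminescence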
[18] = target: Paired box protein Pax-8 (Homo sapiens, UniProt Q06710); test: inhibitors of PAX8-driven TPO luciferase reporter, dose response, RMG-I cells, cherry-pick (AID 687027); assay type: functional, cell-based;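 also: luciferase reporter driven by Pax8 target thyroperoxidase promoter measured by SteadyGlo luminescence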
[19] = off-target signal loss in HeLa-CEM21 co-culture – HeLa F-luc CTL cells, cherry-picked, counter-screen for HIV-1 Env fusion inhibitor project, dose response (AID 652040); assay type: functional, cell-based;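 also: potency for signal decrease marking cytotoxic or nonspecific inhibition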
[20] = ZM109 Env clade C HIV-1 fusion inhibitors, dose response, HeLa effector, CEM target cells, luciferase, cherry-pick (AID 652058); assay type: functional, cell-based
[21] = MC4R antagonists, dose response, counter-screen for LGR2 antagonist project, cell-based, plate reader, cherry pick (AID 743444); assay type: functional;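 also: transfected HEK 293 cells stimulated with alpha-MSH peptide; potency of inhibitors of the alpha-MSH evoked signal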

Paired box protein Pax-8, sequence (Q06710 whole entry, the tested form may be a part): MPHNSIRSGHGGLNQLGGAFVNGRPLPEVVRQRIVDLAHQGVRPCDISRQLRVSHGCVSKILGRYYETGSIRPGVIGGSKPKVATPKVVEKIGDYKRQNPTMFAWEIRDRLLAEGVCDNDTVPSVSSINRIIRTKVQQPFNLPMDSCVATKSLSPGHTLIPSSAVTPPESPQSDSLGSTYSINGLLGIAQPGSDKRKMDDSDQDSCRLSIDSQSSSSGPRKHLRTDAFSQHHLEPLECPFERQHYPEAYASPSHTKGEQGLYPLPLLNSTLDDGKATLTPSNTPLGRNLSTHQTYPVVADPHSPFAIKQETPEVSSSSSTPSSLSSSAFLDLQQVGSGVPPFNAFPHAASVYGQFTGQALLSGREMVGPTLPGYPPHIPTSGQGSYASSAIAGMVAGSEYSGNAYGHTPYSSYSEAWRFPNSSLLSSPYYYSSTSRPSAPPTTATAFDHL

COC(=O)c1sc2nc3c(cc2c1N)CCCC3
EC50 [1]: > 67.5 µM (inactive)

C/C(=N/N=C(/C)c1cccs1)c1cccs1
EC50 [2]: > 67.6 µM (inactive)
EC50 [3]: > 67.6 µM (inactive)

CCN(CC)c1ccc(/C=N/NC(=S)NC)c(O)c1
IC50 [4]: 58.2 µM (active)
IC50 [5]: > 122 µM (inactive)

CN(Cc1c(O)ccc2c1oc(=O)c1ccccc12)C1CCCCC1
IC50 [6]: 7.13 µM (active)
IC50 [7]: 5.12 µM (active)
AC50 [8]: 4.96 µM (active)

COC(=O)C1=C(C)N(Cc2cccc(C(F)(F)F)c2)C(NCc2cc(OC)c(OC)c(OC)c2)=NC1CCc1ccccc1 (stereo unspecified)
IC50 [9]: > 96.6 µM (inactive)

Cc1ccc(-c2nnc(NC3CCCC3)s2)cc1
EC50 [1]: > 67.6 µM (inactive)

CNC[C@H]1Oc2cc(C#CC3CCCC3)ccc2S(=O)(=O)N([C@H](C)CO)C[C@H]1C
AC50 [10]: 30.9 µM (active)

CC(=O)CC1(O)C(=O)N(Cc2ccccc2)c2ccccc21 (stereo unspecified)
AC50 [11]: > 52 µM (inactive)

Fc1cccc(F)c1/C=C/c1ccc2ccccc2n1
EC50 [2]: > 67.5 µM (inactive)
EC50 [3]: > 67.5 µM (inactive)
IC50 [12]: 36.8 µM (active)

COCCN(C[C@@H]1[C@@H](c2ccccc2)[C@H](CO)N1C(=O)C1CC1)C(C)=O
AC50 [13]: 0.502 µM (active)

O=C(NNC(=S)Nc1ccc(Br)cc1)c1cccnc1
IC50 [5]: > 122 µM (inactive)

CN(C)c1cccc(-c2cnc(N3CCC(C(N)=O)CC3)s2)c1
EC50 [1]: > 67.5 µM (inactive)

COc1ccc(CC(NC(C)=O)C(=O)N2CCN(C(=O)N(C(C)C)C(C)C)CC2)cc1 (stereo unspecified)
AC50 [13]: 0.834 µM (active)

Cc1ccc(C(=O)Nc2ncc(Cc3ccc(F)cc3)s2)o1
AC50 [11]: 12 µM (active)

Cc1ccsc1/C=N/Nc1cccc(C(=O)O)c1
EC50 [2]: > 67.5 µM (inactive)
AC50 [14]: 1.32 µM (active)
AC50 [15]: > 52 µM (inactive)
AC50 [16]: 1.3 µM (active)
EC50 [3]: > 67.5 µM (inactive)
IC50 [4]: 92.5 µM (active)
AC50 [17]: 2.65 µM (active)
AC50 [18]: 4.41 µM (active)
AC50 [19]: 2.45 µM (active)
AC50 [20]: 7.12 µM (active)
AC50 [21]: 1.14 µM (active)
